Laboratory results published in patent US20170231922A1, “3, 5-DIHYDROXY-4-ISOPROPYLSTILBENE (DHIS) AS MITICIDAL AGENT AND ITS THERAPEUTIC USES” (Horizon GenoMed Therapeutics, Inc, priority 2016, published 2017).

Legend:
demodex mites [1] = assay: Case study, acne patient; assay type: in vivo, human; conditions: Case 2, person with acne, DHIS 0.75% cream BID, 4 weeks
Excerpt: Case 2 involved a person with more than 3 years of acnes symptoms. They had open comedons as well as closed comedons. There were papules and pustules but only mild erythema. They had received topical retinoic acid therapy with no improvement. In addition, they received benzoyl peroxide/antibiotic combination topical therapy, oral birth control pills, oral tetracycline, as well as oral Traditional Chinese Medicine concoction, all without satisfactory effects. They had increased demodex mite count at base line. […] Their facial acne papules and pustules resolved at the end of 4 weeks. See photos of the acne patient (cheeks and forehead) prior to treatment (FIGS. 4A and 5A) and after 4 weeks of treatment (FIGS. 4B and 5B).

D. bravis = assay: In vitro miticidal assay, survival of isolated human demodex mites under microscopy; conditions: for Number mites dead: 30 mites per slide
Experimental: (§1) DHIS has potent miticidal activities. As described herein, an in vitro miticidal assay was performed to determine the miticidal activities of DHIS by using human demodex mites prepared with pressure scraping method, following by microscopic examination of the survival time of demodex under microscopy, using the method described in Chinese Journal of Parasitology and Parasitic Diseases 2011; 29:258-263.
(§2) In vitro miticidal assay was performed using human demodex mites prepared with pressure scraping method, following by microscopic examination of the survival time of demodex under microscopy, using the method described in Chinese Journal of Parasitology and Parasitic Diseases (Supra).
(§3) […] The slides were incubated at room temperature (20° C.) and under 70% humidity. The slides were examined under microscopy every 60 minutes for 8 hours after treatment. At each time point, the percentage of dead mites (no movements for 1 minute) was recorded for each treatment concentration.

D. folliculorum = assay: as above; conditions: for Number mites dead / (%) mites dead: D. folliculorum; for Number mites dead: 30 mites per slide
Experimental: as §1, §2, §3

demodex mites [2] = assay: Topical DHIS cream in volunteers with papulopustular rosacea (FIG. 1); assay type: in vivo, human; conditions: DHIS 0.75% cream twice daily
Experimental: (§4) A total of 20 volunteers (10 with papulopustular rosacea, 10 with papulopustular acne vulgaris) were recruited for this observation.
(§5) For each volunteer, the duration of the condition, the baseline sign and symptoms of their facial conditions and the severity of their condition were recorded. For the signs of the condition, papules and pustules were counted as total number for each individual. Erythema was rated as severe (3, deep red to purple), moderate (2, red), mild (1, pink), or none (0, normal color). For burning and pruritus, visual analogue scale (10 cm line) was used, with the score recorded from 0 (no symptoms) to 10 cm (most severe). In addition, the baseline demodex mite density of the perinasal skin was measured using the modified pressure-scraping technique. For the purpose of this study, both D. folliculorum and D. bravis were counted together. Then each volunteer used DHIS topical cream at 0.75% concentration, twice daily to the affected areas on the face. They were seen again at 4 weeks, when the clinical signs and symptoms were recorded. Further the demodex mite density was assessed again using the modified pressure/scraping technique.
(§6) Individuals with papulopustular rosacea (FIG. 1, N=10) and acne (FIG. 2, N=10) received DHIS 0.75% cream twice daily for 4 weeks. The demodex mite density (mite/cm^2) and clinical signs/symptoms are assessed at the baseline and again at 4 weeks. Papules and pustules are counted or the entire facial area for each individual. Erythema was graded as mild (1, pink), moderate (2, red), or severe (3, purple-red), whereas itchiness and burning sensation were graded according to a 10 cm visual analogue scale. * denotes p<0.05 (t-test)

demodex mites [3] = assay: Case study, rosacea patient; assay type: in vivo, human; conditions: Case 1, person with rosacea, DHIS 0.75% cream BID for 4 weeks
Excerpt: Case 1 involved a person with rosacea for 11 years. They had facial erythema and papules and pustules, with mild telangiectasia. There was burning sensation. This was associated with mild rhinophyma. There was foreign body sensation in the eyes. They had received tetracycline and sulfonamide based creams with no obvious improvement. At base line, there was more than usual number of demodex mites. They received DHIS 0.75% cream treatment BID for 4 weeks. […] See photos of the rosacea patient prior to treatment (FIG. 3A) and after 4 weeks of treatment (FIG. 3B).

demodex mites [4] = assay: Topical DHIS cream in volunteers with papulopustular acne vulgaris (FIG. 2); assay type: in vivo, human; conditions: acne patients, DHIS 0.75% cream twice daily
Experimental: as §4, §5, §6

For `CC(C)c1c(O)cc(/C=C/c2ccccc2)cc1O` [DHIS, 3,5-Dihydroxy-4-isopropyl-trans-stilbene], the “facial acne papules and pustules” value (demodex mites [1]) was “resolved”, the “facial demodex mite density” value (demodex mites [1]) was “significantly decreased” and the Number mites dead (D. bravis; DHIS 1 μM, 0 hr) was 0. For the same molecule, the “(%) mites dead” value (D. bravis; DHIS 1 μM, 1 hr) was “(6.7) %”, the Number mites dead (D. bravis; DHIS 1 μM, 1 hr) was 2 and the “(%) mites dead” value (D. bravis; DHIS 1 μM, 2 hr) was “(13) %”. The Number mites dead (D. bravis; DHIS 1 μM, 2 hr) was 4, the “(%) mites dead” value (D. bravis; DHIS 1 μM, 3 hr) was “(23) %” and the Number mites dead (D. bravis; DHIS 1 μM, 3 hr) was 7. For the same molecule, the “(%) mites dead” value (D. bravis; DHIS 1 μM, 4 hr) was “(33) %”, the Number mites dead (D. bravis; DHIS 1 μM, 4 hr) was 10 and the Number mites dead (D. bravis; DHIS 10 μM, 0 hr) was 0. The “(%) mites dead” value (D. bravis; DHIS 10 μM, 1 hr) was “(20) %”, the Number mites dead (D. bravis; DHIS 10 μM, 1 hr) was 6 and the “(%) mites dead” value (D. bravis; DHIS 10 μM, 2 hr) was “(37) %”. For the same molecule, the Number mites dead (D. bravis; DHIS 10 μM, 2 hr) was 11, the “(%) mites dead” value (D. bravis; DHIS 10 μM, 3 hr) was “(47) %” and the Number mites dead (D. bravis; DHIS 10 μM, 3 hr) was 14. The “(%) mites dead” value (D. bravis; DHIS 10 μM, 4 hr) was “(63) %”, the Number mites dead (D. bravis; DHIS 10 μM, 4 hr) was 19 and the Number mites dead (D. bravis; DHIS 100 μM, 0 hr) was 0. For the same molecule, the “(%) mites dead” value (D. bravis; DHIS 100 μM, 1 hr) was “(40) %”, the Number mites dead (D. bravis; DHIS 100 μM, 1 hr) was 12 and the “(%) mites dead” value (D. bravis; DHIS 100 μM, 2 hr) was “(63) %”. The Number mites dead (D. bravis; DHIS 100 μM, 2 hr) was 19, the “(%) mites dead” value (D. bravis; DHIS 100 μM, 3 hr) was “(80) %” and the Number mites dead (D. bravis; DHIS 100 μM, 3 hr) was 24. For the same molecule, the “(%) mites dead” value (D. bravis; DHIS 100 μM, 4 hr) was “(87) %”, the Number mites dead (D. bravis; DHIS 100 μM, 4 hr) was 26 and the Number mites dead (D. bravis; DHIS 1.0 mM, 0 hr) was 0. The “(%) mites dead” value (D. bravis; DHIS 1.0 mM, 1 hr) was “(47) %”, the Number mites dead (D. bravis; DHIS 1.0 mM, 1 hr) was 14 and the “(%) mites dead” value (D. bravis; DHIS 1.0 mM, 2 hr) was “(60) %”. For the same molecule, the Number mites dead (D. bravis; DHIS 1.0 mM, 2 hr) was 18, the “(%) mites dead” value (D. bravis; DHIS 1.0 mM, 3 hr) was “(87) %” and the Number mites dead (D. bravis; DHIS 1.0 mM, 3 hr) was 26. The “(%) mites dead” value (D. bravis; DHIS 1.0 mM, 4 hr) was “(87) %”, the Number mites dead (D. bravis; DHIS 1.0 mM, 4 hr) was 26 and the Number mites dead (D. folliculorum; DHIS 1 μM, 0 hr) was 0. For the same molecule, the “(%) mites dead” value (D. folliculorum; DHIS 1 μM, 1 hr) was “(10) %”, the Number mites dead (D. folliculorum; DHIS 1 μM, 1 hr) was 3 and the “(%) mites dead” value (D. folliculorum; DHIS 1 μM, 2 hr) was “(17) %”. For the same molecule, the Number mites dead (D. folliculorum; DHIS 1 μM, 2 hr) was 5, the “(%) mites dead” value (D. folliculorum; DHIS 1 μM, 3 hr) was “(28) %” and the Number mites dead (D. folliculorum; DHIS 1 μM, 3 hr) was 8.6. The “(%) mites dead” value (D. folliculorum; DHIS 1 μM, 4 hr) was “(43) %”, the Number mites dead (D. folliculorum; DHIS 1 μM, 4 hr) was 13 and the Number mites dead (D. folliculorum; DHIS 10 μM, 0 hr) was 0. The “(%) mites dead” value (D. folliculorum; DHIS 10 μM, 1 hr) was “(23) %”, the Number mites dead (D. folliculorum; DHIS 10 μM, 1 hr) was 7 and the “(%) mites dead” value (D. folliculorum; DHIS 10 μM, 2 hr) was “(41) %”. For the same molecule, the Number mites dead (D. folliculorum; DHIS 10 μM, 2 hr) was 12.3, the “(%) mites dead” value (D. folliculorum; DHIS 10 μM, 3 hr) was “(47) %” and the Number mites dead (D. folliculorum; DHIS 10 μM, 3 hr) was 14. For the same molecule, the “(%) mites dead” value (D. folliculorum; DHIS 10 μM, 4 hr) was “(73) %”, the Number mites dead (D. folliculorum; DHIS 10 μM, 4 hr) was 22 and the Number mites dead (D. folliculorum; DHIS 100 μM, 0 hr) was 0. The “(%) mites dead” value (D. folliculorum; DHIS 100 μM, 1 hr) was “(33) %”, the Number mites dead (D. folliculorum; DHIS 100 μM, 1 hr) was 10 and the “(%) mites dead” value (D. folliculorum; DHIS 100 μM, 2 hr) was “(72) %”. The Number mites dead (D. folliculorum; DHIS 100 μM, 2 hr) was 21.7, the “(%) mites dead” value (D. folliculorum; DHIS 100 μM, 3 hr) was “(87) %” and the Number mites dead (D. folliculorum; DHIS 100 μM, 3 hr) was 26. For the same molecule, the “(%) mites dead” value (D. folliculorum; DHIS 100 μM, 4 hr) was “(92) %”, the Number mites dead (D. folliculorum; DHIS 100 μM, 4 hr) was 27.7 and the Number mites dead (D. folliculorum; DHIS 1.0 mM, 0 hr) was 0. The “(%) mites dead” value (D. folliculorum; DHIS 1.0 mM, 1 hr) was “(43) %”, the Number mites dead (D. folliculorum; DHIS 1.0 mM, 1 hr) was 13 and the “(%) mites dead” value (D. folliculorum; DHIS 1.0 mM, 2 hr) was “(80) %”. The Number mites dead (D. folliculorum; DHIS 1.0 mM, 2 hr) was 24, the “(%) mites dead” value (D. folliculorum; DHIS 1.0 mM, 3 hr) was “(93) %” and the Number mites dead (D. folliculorum; DHIS 1.0 mM, 3 hr) was 28. The “(%) mites dead” value (D. folliculorum; DHIS 1.0 mM, 4 hr) was “(97) %”, the Number mites dead (D. folliculorum; DHIS 1.0 mM, 4 hr) was 29 and the “miticidal activity in vitro” value (D. folliculorum; human demodex mites, Example 1) was “dose-dependent miticidal activity”. For the same molecule, the erythema (demodex mites [2]; 4 weeks) was “reduced erythema was also statistically significant”, the “itchiness and burning sensation” value (demodex mites [2]; 4 weeks) was “reduced” and the “lesional counts for papules and pustules” value (demodex mites [2]; 4 weeks) was “dramatic reduction”. For the same molecule, the demodex mite density (demodex mites [2]; 4 weeks compared with baseline) was “significant reduction”, the demodex mite density (demodex mites [3]) was “markedly decreased” and the “rosacea signs and symptoms” value (demodex mites [3]) was “dramatically improved”. For the same molecule, the erythema (demodex mites [4]; 4 weeks) was “reduced erythema was also statistically significant”, the “itchiness and burning sensation” value (demodex mites [4]; 4 weeks) was “reduced” and the “lesional counts for papules and pustules” value (demodex mites [4]; 4 weeks) was “dramatic reduction”. For the same molecule, the demodex mite density (demodex mites [4]; 4 weeks compared with baseline) was “significant reduction”.
